{"source": "patent US20170217976A1", "about": "“6-(AMINO ACID)-MORPHINAN DERIVATIVES IN COMBINATION WITH PERMEATION […] FOR USE AS AN ORALLY, […], TRA[…] NASALLY AD[…]” (C[…], priority 2014, published 2017)", "origin": "cited, not measured here", "details": "cited from earlier work"}
{"smiles": "C[C@H]1CN(C[C@H](Cc2ccccc2)C(=O)NCC(=O)O)CC[C@@]1(C)c1cccc(O)c1", "note": "[alvimopan]", "values": [{"measurement": "oral bioavailability", "value": "approx. 6%"}]}
